According to patent US20230293629A1, “METHODS FOR ATTENUATING RELEASE OF INFLAMMATORY MEDIATORS AND PEPTIDES USEFUL THEREIN” (BIOMARCK PHARMACEUTICALS LTD., priority 2006, published 2023):
Where a SMILES comes first, the peptide text is derived from it. Where no end group is shown, it is not given here. The star is where a group is joined. Myristoyl = CCCCCCCCCCCCCC(=O)*

Tests used:
HL-60 clone 15 cells = assay: PMA-stimulated EPO release from HL-60 clone 15 cells; type: cell-based, human; details: 50 μM test peptide, two hour incubation with 100 nM PMA; HL-60 clone 15 cells
Procedure: (§1) Three types of human leukocyte cell lines, specifically the promyelocytic cell line HL-60 clone 15, the monocytic cell line U937, and the lymphocyte natural killer cell line NK-92 were purchased from American Type Culture Collection (ATCC; Rockville, MD). HL-60 clone 15 cells (ATCC CRL-1964) were maintained in medium consisting of RPMI 1640 with L-glutamine supplemented with 10% heat-inactivated fetal bovine serum (Gibco; Invitrogen Co., Carlsbad, CA), 50 IU/ml penicillin, 50 μg/mL streptomycin, and 25 mM HEPES buffer, pH 7.8, at 37° C. in an atmosphere containing 5% CO2. Final differentiation to an eosinophil-like phenotype was initiated by culturing cells at 5×10^5 cells/ml in the above medium containing 0.5 mM butyric acid (Sigma-Aldrich Co.) for 5 days as previously described (Tiffany H L, Li F, Rosenberg H F. Hyperglycosylation of eosinophil ribonucleases in a promyelocytic leukemia cell line and in differentiated peripheral blood progenitor cells. J Leukoc Biol 1995; 58:49-54; Tiffany H L, Alkhatib G, Combadiere C, Berger E A, Murphy P M. CC chemokine receptors 1 and 3 are differentially regulated by IL-5 during maturation of eosinophilic HL-60 cells. J Immunol 1998; 160:1385-1392). U937 cells (ATCC CRL-1593.2) were grown at 37° C. in an atmosphere of 5% CO2 in complete medium consisting of RPMI 1640 with L-glutamine supplemented with 10% FBS, 50 IU/ml penicillin, and 50 μg/mL streptomycin. NK-92 cells (ATCC CRL-2407) were maintained in alpha-MEM medium (Sigma-Aldrich Co.) supplemented with 20% FBS, 100 U/ml of interleukin-2 (IL-2) (Chemicon International, Inc., Temecula, CA), 5×10^−5 M of 2-mercaptoethanol, 50 IU/mL penicillin, and 50 μg/ml streptomycin at 37° C. in an atmosphere containing 5% CO2. Cell morphology was judged by assessment of Wright-Giemsa-stained cells. Viability of cells harvested for experiments was assessed by trypan blue exclusion and populations of cells with viability >95% were used.
(§2) HL-60 clone 15, U937, and NK-92 cells were washed and resuspended at 2.5×10^6 cells/ml in phenol red-free RPMI-1640 (Cellgro; Mediatech, Inc.) for all degranulation assays. Aliquots of cells in 15 ml tubes were preincubated with indicated concentrations of MANS, RNS, or a test peptide for 10 min at 37° C. The cells then were stimulated with PMA for up to 2 hr. A control reference (PMA control reference) was established for each cell type using HL-60 clone 15, U937, and NK-92 cells, respectively, which were washed and resuspended at 2.5×10^6 cells/ml in phenol red-free RPMI-1640 and stimulated with PMA but in the absence of MANS, RNS, or a test peptide for the same time periods. The reaction was terminated by placing tubes on ice and centrifuging cells at 400 g for 5 min at 4° C.
(§3) For measurements of released MPO from neutrophils and released lysozyme from U937 cells, we were able to quantify secretion by using as standards human MPO and egg white […], respectively. For released EPO from HL-60 clone 15 cells and for released granzyme from NK-92 cells, no standards were available to use for quantification. […] To measure intracellular EPO in HL-60 clone 15 cells and intracellular granzyme in NK-92 cells, appropriate aliquots of 0.1% triton X-100-lysed cells were taken for quantification of intracellular granule proteins as described below. All treatments were expressed as percentage of control to minimize variability between cultures.
EPO activity released by HL-60 clone 15 cells was assayed using TMB according to a previously established technique (Lacy P, Mahmudi-Azer S, Bablitz B, Hagen S C, Velazquez J R, Man S F, Moqbel R. Rapid mobilization of intracellularly stored RANTES in response to interferon-gamma in human eosinophils. Blood 1999; 94:23-32). Thus, 100 μL of TMB substrate solution was added to 50 μL=microliters) of sample in a 96-well microplate and incubated at room temperature for 15 min (min=minutes). […]

U937 cells = assay: PMA-stimulated lysozyme secretion by U937 cells; type: cell-based, human; details: 50 μM test peptide, two hour incubation with 100 nM PMA; U937 cells
Procedure: as §1, §2, §3
Lysozyme secreted by U937 cells was measured using a spectrophotometric assay as described previously (Balboa M A, Saez Y, Balsinde J. Calcium-independent phospholipase A2 is required for lysozyme secretion in U937 promonocytes. J Immunol 2003; 170:5276-5280) with slight modification. Thus, 100 μL of sample was mixed with 100 μL of a Micrococcus lysodeikticus (Sigma-Aldrich Co.) suspension (0.3 mg/ml in 0.1 M sodium phosphate buffer, pH 7.0) in a 96-well microplate. The decrease in absorbance at 450 nm was measured at room temperature. […]

[1] = Qualitative solubility of peptides in 0.5 N saline, pH 6.5

## Ac-TAAKGEAA [Ac-TAAKGEAA, TAAKGEAA]
HL-60 clone 15 cells
  % Inhibition EPO: 40.4%
U937 cells
  % Inhibition Lysozyme: 0.5%
[1]
  solubility: > 230 mg/mL

## CCCCCCCCCCCCCC(=O)N[C@H](C(=O)N[C@@H](C)C(=O)N[C@@H](C)C(=O)N[C@@H](CCCCN)C(=O)NCC(=O)N[C@@H](CCC(=O)O)C(=O)N[C@@H](C)C(=O)N[C@@H](C)C(=O)O)[C@@H](C)O [MA-TAAKGEAA, TAAKGEAA] (Myristoyl-TAAKGEAA-OH; C-terminus assumed)
HL-60 clone 15 cells
  % Inhibition EPO: 0%
U937 cells
  % Inhibition Lysozyme: 80.2%
[1]
  solubility: < 1 mg/mL

## CCCCCCCCCCCCCC(=O)N[C@@H](C)C(=O)N[C@@H](C)C(=O)N[C@@H](C)C(=O)N[C@@H](CCC(=O)O)C(=O)N[C@@H](CCCNC(=N)N)C(=O)N1CCC[C@H]1C(=O)NCC(=O)N[C@@H](CCC(=O)O)C(=O)N[C@@H](C)C(=O)N[C@@H](C)C(=O)N[C@H](C(=O)N[C@@H](C)C(=O)O)C(C)C [MA-AAAERPGEAAVA, AAAERPGEAAVA] (Myristoyl-AAAERPGEAAVA-OH; C-terminus assumed)
HL-60 clone 15 cells
  % Inhibition EPO: 21.6%
U937 cells
  % Inhibition Lysozyme: 98%
[1]
  solubility: < 20 mg/mL

## Ac-GAQFSKTAAA [Ac-GAQFSKTAAA, GAQFSKTAAA]
HL-60 clone 15 cells
  % Inhibition EPO: 55.2%
U937 cells
  % Inhibition Lysozyme: 28.3%
[1]
  solubility: > 100 mg/mL

## Ac-GAQFSATAAA [Ac-GAQFSATAAA, GAQFSATAAA]
HL-60 clone 15 cells
  % Inhibition EPO: 35.7%
U937 cells
  % Inhibition Lysozyme: 3.2%
[1]
  solubility: < 10 mg/mL

## Ac-GAQFSKTAAKGA [Ac-GAQFSKTAAKGA, GAQFSKTAAKGA]
HL-60 clone 15 cells
  % Inhibition EPO: 40.9%
U937 cells
  % Inhibition Lysozyme: 24.1%
[1]
  solubility: > 50 mg/mL

## Ac-GAQFSKTAA [Ac-GAQFSKTAA, GAQFSKTAA]
HL-60 clone 15 cells
  % Inhibition EPO: 33.3%
U937 cells
  % Inhibition Lysozyme: 28.9%
[1]
  solubility: > 20 mg/mL

## Ac-AKGEAAAERPGEAAVA [Ac-AKGEAAAERPGEAAVA, AKGEAAAERPGEAAVA]
HL-60 clone 15 cells
  % Inhibition EPO: 72.3%
U937 cells
  % Inhibition Lysozyme: 34.3%

## Ac-QFSKTAAKGE-NH2 [Ac-QFSKTAAKGE-NH2, QFSKTAAKGE]
HL-60 clone 15 cells
  % Inhibition EPO: 15.7%
U937 cells
  % Inhibition Lysozyme: 60.7%
[1]
  solubility: > 150 mg/mL

## Ac-FSKTAAKGE-NH2 [Ac-FSKTAAKGE-NH2, FSKTAAKGE]
HL-60 clone 15 cells
  % Inhibition EPO: 25.3%
U937 cells
  % Inhibition Lysozyme: 56.7%
[1]
  solubility: > 100 mg/mL

## CCCCCCCCCCCCCC(=O)N[C@@H](C)C(=O)N[C@@H](CCCCN)C(=O)NCC(=O)N[C@@H](CCC(=O)O)C(=O)O [MA-AKGE, AKGE] (Myristoyl-AKGE-OH; C-terminus assumed)
HL-60 clone 15 cells
  % Inhibition EPO: 0%
U937 cells
  % Inhibition Lysozyme: 28.6%
[1]
  solubility: < 1 mg/mL

## CCCCCCCCCCCCCC(=O)N[C@@H](C)C(=O)N[C@@H](C)C(=O)N[C@@H](CCCCN)C(=O)NCC(=O)N[C@@H](CCC(=O)O)C(=O)N[C@@H](C)C(=O)O [MA-AAKGEA, AAKGEA] (Myristoyl-AAKGEA-OH; C-terminus assumed)
HL-60 clone 15 cells
  % Inhibition EPO: 31.4%
U937 cells
  % Inhibition Lysozyme: 28.6%
[1]
  solubility: < 1 mg/mL

## CCCCCCCCCCCCCC(=O)NCC(=O)N[C@@H](C)C(=O)N[C@@H](CCC(N)=O)C(=O)N[C@@H](Cc1ccccc1)C(=O)N[C@@H](CO)C(=O)N[C@@H](CCCCN)C(=O)N[C@H](C(=O)N[C@@H](C)C(=O)N[C@@H](C)C(=O)N[C@@H](CCCCN)C(=O)O)[C@@H](C)O [MA-GAQFSKTAAK, GAQFSKTAAK] (Myristoyl-GAQFSKTAAK-OH; C-terminus assumed)
HL-60 clone 15 cells
  % Inhibition EPO: 37.4%
U937 cells
  % Inhibition Lysozyme: 56.6%
[1]
  solubility: > 10 mg/mL

## CC(=O)N[C@@H](C)C(=O)N[C@@H](CCCCN)C(=O)NCC(=O)N[C@@H](CCC(=O)O)C(N)=O [Ac-AKGE-NH2, AKGE] (Ac-AKGE-NH2)
HL-60 clone 15 cells
  % Inhibition EPO: 45.6%
U937 cells
  % Inhibition Lysozyme: 26.8%
[1]
  solubility: > 200 mg/mL

## CC(=O)N[C@@H](C)C(=O)N[C@@H](CCCCN)C(=O)NCC(=O)N[C@@H](CCC(=O)O)C(=O)O [Ac-AKGE, AKGE] (Ac-AKGE-OH; C-terminus assumed)
HL-60 clone 15 cells
  % Inhibition EPO: 87.6%
U937 cells
  % Inhibition Lysozyme: 7.2%
[1]
  solubility: > 200 mg/mL

## Ac-GAQFSKTAAKGEAAAERPGE
HL-60 clone 15 cells
  % Inhibition EPO: 48.8%
U937 cells
  % Inhibition Lysozyme: 0.0%

## CCCCCCCCCCCCCC(=O)NCC(=O)N[C@@H](C)C(=O)N[C@@H](CCC(N)=O)C(=O)N[C@@H](Cc1ccccc1)C(=O)N[C@@H](CO)C(=O)N[C@@H](CCCCN)C(=O)N[C@H](C(=O)N[C@@H](C)C(=O)N[C@@H](C)C(=O)N[C@@H](CCCCN)C(=O)NCC(=O)N[C@@H](CCC(=O)O)C(=O)N[C@@H](C)C(=O)N[C@@H](C)C(=O)N[C@@H](C)C(=O)N[C@@H](CCC(=O)O)C(=O)O)[C@@H](C)O [MA-GAQFSKTAAKGEAAAE, GAQFSKTAAKGEAAAE] (Myristoyl-GAQFSKTAAKGEAAAE-OH; C-terminus assumed)
HL-60 clone 15 cells
  % Inhibition EPO: 30.3%
U937 cells
  % Inhibition Lysozyme: 99%
[1]
  solubility: > 2 mg/mL

## Ac-AQFSKTAAKGE-NH2 [Ac-AQFSKTAAKGE-NH2, AQFSKTAAKGE]
HL-60 clone 15 cells
  % Inhibition EPO: 42.8%
U937 cells
  % Inhibition Lysozyme: 51.8%
[1]
  solubility: > 90 mg/mL

## Ac-AAKGEA [Ac-AAKGEA, AAKGEA]
HL-60 clone 15 cells
  % Inhibition EPO: 10.6%
U937 cells
  % Inhibition Lysozyme: 9.2%
[1]
  solubility: > 150 mg/mL

## CCCCCCCCCCCCCC(=O)NCC(=O)N[C@@H](C)C(=O)N[C@@H](CCC(N)=O)C(=O)N[C@@H](Cc1ccccc1)C(=O)N[C@@H](CO)C(=O)N[C@@H](CCCCN)C(=O)N[C@H](C(=O)N[C@@H](C)C(=O)N[C@@H](C)C(=O)N[C@@H](CCCCN)C(=O)NCC(=O)N[C@@H](CCC(=O)O)C(=O)N[C@@H](C)C(=O)N[C@@H](C)C(=O)N[C@@H](C)C(=O)N[C@@H](CCC(=O)O)C(=O)N[C@@H](CCCNC(=N)N)C(=O)N1CCC[C@H]1C(=O)NCC(=O)N[C@@H](CCC(=O)O)C(=O)O)[C@@H](C)O (Myristoyl-GAQFSKTAAKGEAAAERPGE-OH; C-terminus assumed)
HL-60 clone 15 cells
  % Inhibition EPO: 33.6%
U937 cells
  % Inhibition Lysozyme: 99%

## Ac-GAQFSKTAAKGEAAAE [Ac-GAQFSKTAAKGEAAAE, GAQFSKTAAKGEAAAE]
HL-60 clone 15 cells
  % Inhibition EPO: 56.6%
U937 cells
  % Inhibition Lysozyme: 8.4%

## Ac-AAAERPGEAAVA [Ac-AAAERPGEAAVA, AAAERPGEAAVA]
HL-60 clone 15 cells
  % Inhibition EPO: 51.2%
U937 cells
  % Inhibition Lysozyme: 29.5%

## CCCCCCCCCCCCCC(=O)N[C@@H](CCCNC(=N)N)C(=O)N1CCC[C@H]1C(=O)NCC(=O)N[C@@H](CCC(=O)O)C(=O)N[C@@H](C)C(=O)N[C@@H](C)C(=O)N[C@H](C(=O)N[C@@H](C)C(=O)O)C(C)C [MA-RPGEAAVA, RPGEAAVA] (Myristoyl-RPGEAAVA-OH; C-terminus assumed)
HL-60 clone 15 cells
  % Inhibition EPO: 0%
U937 cells
  % Inhibition Lysozyme: 99%

## Ac-RPGEAAVA [Ac-RPGEAAVA, RPGEAAVA]
HL-60 clone 15 cells
  % Inhibition EPO: 45.8%
U937 cells
  % Inhibition Lysozyme: 0.0%
